Results: PubChem BioAssay AID788 (SRMLSC, 2007)
Calls of active or inactive are those of the source. No rule for the calls is given here.

Assays:
[1] = system: S. cerevisiae vps1Δ apl2Δ growth inhibition, dose response; experiment: growth inhibition of vps1Δ apl2Δ yeast, dose response, post-Golgi transport modulator project, S. cerevisiae, background strain comparison (AID 788)
[2] = system: S. cerevisiae wild-type background strain growth inhibition; experiment: as above; conditions: S. cerevisiae vps1Δ apl2Δ growth inhibition, dose response; measured here: wild-type background strain growth

## CCC(=O)c1ccc(N2CCN(C(=O)c3ccc(Br)cc3)CC2)c(F)c1
[1]
  IC50: 25 µM
[2]
  IC50: > 10 µM

## CCCCS(=O)(=O)/C=C\C=C/S(=O)(=O)CCCC
[1]
  IC50: 12.1 µM
[2]
  IC50: 13.9 µM

## COc1ccc(NC(=O)c2ccc(CN3CCN(c4ccccc4)CC3)cc2)cc1
[1]
  IC50: > 10 µM (inactive)
[2]
  IC50: > 10 µM

## O=C(N/N=C/c1ccc(OC(=O)c2ccccc2)cc1)c1ccc(CN2CCOCC2)cc1
[1]
  IC50: > 10 µM (inactive)
[2]
  IC50: > 10 µM

## CC(C)COC(=O)c1ccc2c(c1O)C(=O)c1ccccc1C2=O
[1]
  IC50: > 10 µM (inactive)
[2]
  IC50: > 10 µM

## COc1ccc(NC(=S)NC(NC(=O)c2ccc(Cl)cc2Cl)C(Cl)(Cl)Cl)c([N+](=O)[O-])c1 (stereo unspecified)
[1]
  IC50: > 10 µM (inactive)
[2]
  IC50: > 10 µM

## Cc1cccnc1Nc1nc(-c2ccccn2)cs1
[1]
  IC50: 22.7 µM
[2]
  IC50: > 10 µM

## CCOC(=O)C(NC(C)=O)(Nc1ccc(S(=O)(=O)Nc2onc(C)c2C)cc1)C(F)(F)F (stereo unspecified)
[1]
  IC50: > 10 µM (inactive)
[2]
  IC50: > 10 µM

## COCCNC(=O)C(c1ccc(F)cc1)N(CC1CCCO1)C(=O)CCC(=O)Nc1ccccn1 (stereo unspecified)
[1]
  IC50: > 10 µM (inactive)
[2]
  IC50: > 10 µM

## O=C(OCn1ncc(Br)c(Br)c1=O)c1ccc(F)cc1
[1]
  IC50: 5.12 µM
[2]
  IC50: 5.38 µM

## CCSc1nnc(NC(=O)NCC(F)(F)F)s1
[1]
  IC50: > 10 µM (inactive)
[2]
  IC50: > 10 µM

## O=C(OCn1ncc(Cl)c(Cl)c1=O)c1ccc(C(F)(F)F)cc1
[1]
  IC50: 23.2 µM
[2]
  IC50: > 10 µM

## CC1=CC(C)(C)Nc2ccc(OC(=O)CN3C(=O)c4cccc5cccc(c45)C3=O)cc21
[1]
  IC50: > 10 µM (inactive)
[2]
  IC50: > 10 µM

## CCC(=O)N(CCO)Cc1cc2ccc(C)c(C)c2[nH]c1=O
[1]
  IC50: > 10 µM (inactive)
[2]
  IC50: > 10 µM

## COC(=O)c1ccc(CSc2nnc(NC(C)C)s2)cc1
[1]
  IC50: > 10 µM (inactive)
[2]
  IC50: > 10 µM

## C=CCc1ccc(OCC(O)CN2CCC(Cc3ccccc3)CC2)c(OC)c1 (stereo unspecified)
[1]
  IC50: 4.2 µM
[2]
  IC50: 19.1 µM

## O=C(O)c1cc(-c2ccc(/C=N/Nc3ccc(Cl)cc3)o2)ccc1Cl
[1]
  IC50: 10.9 µM
[2]
  IC50: 16.4 µM

## Cc1c(Cc2ccccc2)c(=O)oc2c(C)c(OCc3nn[nH]n3)ccc12
[1]
  IC50: > 10 µM (inactive)
[2]
  IC50: > 10 µM

## CC(C)c1ccc(C(=O)CSc2n[nH]c(-c3ccncc3)n2)cc1
[1]
  IC50: 5.64 µM

## COc1ccccc1N1CCN(C2CCN(C(=O)c3cc(OC)c(OC)c(OC)c3)CC2)CC1
[1]
  IC50: > 10 µM (inactive)
[2]
  IC50: > 10 µM

## Cc1ccc(S(=O)(=O)c2c(C)nn(C(C)(C)C)c2OC(=O)c2ccc(Br)o2)cc1
[1]
  IC50: > 10 µM (inactive)
[2]
  IC50: > 10 µM

## CC1CC(C)CN(CC(C)(C)NS(=O)(=O)c2ccc(Cl)cc2)C1 (stereo unspecified)
[2]
  IC50: > 10 µM

## CCOc1cc(/C=C\[N+](=O)[O-])ccc1OCC(=O)Nc1ccccc1C
[2]
  IC50: > 10 µM

## CC(Sc1ccsc1[N+](=O)[O-])C(=O)NCCc1ccc(Cl)cc1 (stereo unspecified)
[1]
  IC50: > 10 µM (inactive)

## CC(c1nnc(SCn2nnc3ccccc3c2=O)n1-c1ccc(Cl)cc1)N(C)C (stereo unspecified)
[1]
  IC50: 2.16 µM

## Cc1nnc(-c2cccc(Br)c2)c2cn(-c3ccccc3)nc12
[2]
  IC50: > 10 µM

## O=C(NCC(c1cccnc1)N1CCN(c2ccc(F)cc2)CC1)OCc1ccccc1 (stereo unspecified)
[1]
  IC50: 22.9 µM

## O=S1(=O)C=C(Sc2nc3ccccc3s2)c2ccccc21
[1]
  IC50: > 10 µM (inactive)

## O=C(Nc1ccccc1)C1=C(O)CC(c2ccco2)CC1=Nc1ccccc1 (stereo unspecified)
[2]
  IC50: > 10 µM

## CC1CCC(C(C)C)C(OCC(O)CN2CCN(Cc3ccccc3)CC2)C1 (stereo unspecified)
[1]
  IC50: 4.77 µM

## O=S(=O)(Cc1ccccc1Cl)N1CCN(Cc2ccc3c(c2)OCO3)CC1
[1]
  IC50: 9.91 µM

## C=C(C)COc1ccc(-c2ncncc2Oc2ccc(OC)cc2)c(O)c1
[2]
  IC50: > 10 µM

## Cc1cc(NCCCN2CCOCC2)n2ncc(-c3ccc(Cl)cc3)c2n1
[2]
  IC50: > 10 µM

## O=C(OCn1ncc(Br)c(Br)c1=O)c1ccccc1Cl
[1]
  IC50: 21 µM

## Cc1cccc(-c2nnc(-c3cccc(NC(=O)Cc4cccs4)c3)o2)c1
[2]
  IC50: 15.2 µM

## CC1CCN(S(=O)(=O)c2ccc(NC(=O)CCN3C(=O)c4ccccc4C3=O)cc2)CC1
[1]
  IC50: > 10 µM (inactive)

## O=C1C=C(c2ccccc2)C(=O)N1Nc1ccccc1
[1]
  IC50: 20 µM

## O=C(NCC1COc2ccccc2O1)c1ccc(Cl)cc1 (stereo unspecified)
[1]
  IC50: 1.32 µM

## Cc1[nH]nc(N=CC2=C(O)CC(C)(C)CC2=O)c1-c1ccc(Cl)cc1
[1]
  IC50: > 10 µM (inactive)

## CCOc1nc(SCCOc2ccccc2)nc(N(C)C)n1
[1]
  IC50: > 10 µM (inactive)

## O=[N+]([O-])c1cc(Cl)cc(/C=N\Nc2ccccn2)c1O
[1]
  IC50: 9.68 µM

## Cc1c(Cl)c([N+](=O)[O-])nn1Cc1ccc(C(=O)N/N=C\c2cccc(Br)c2)o1
[2]
  IC50: > 10 µM

## Cc1ccc(C(=O)Nc2ccc(Cc3ccncc3)cc2)cc1[N+](=O)[O-]
[1]
  IC50: 23.4 µM

## CCCCC(=O)Nc1nc(C)c(-c2csc(Nc3ccc(Cl)cc3)n2)s1
[2]
  IC50: 6.26 µM

## CCOc1ccc(NC(=O)N(C2CCCCC2)C(C)c2cccnc2)cc1 (stereo unspecified)
[1]
  IC50: 15 µM

## O=C(NC1CCN(Cc2ccccc2)CC1)C1COc2ccccc2O1 (stereo unspecified)
[2]
  IC50: > 10 µM

## COc1ccc(OCCSc2nnc3sc4ccccc4n23)cc1
[1]
  IC50: > 10 µM (inactive)

## O=C(Nc1nnc(-c2ccc(Cl)cc2)o1)c1ccccc1Br
[2]
  IC50: 13.1 µM

## CCCCCCOc1ccc(CN2CCN(CCO)CC2)cc1
[1]
  IC50: 5.19 µM

## c1ccc2c(c1)oc1c(Nc3ccc(CN4CCOCC4)cc3)ncnc12
[2]
  IC50: > 10 µM

## N=c1c2c(-c3ccccc3)c(-c3ccccc3)n(Cc3ccco3)c2ncn1Cc1ccccc1
[1]
  IC50: 18.9 µM
